Assays:
Npc1−/− and Npc1+/+ mice = test: Motor function analysis (Open Field Activity Monitor), NPC mouse study; format: in vivo; settings: 0.1 g/kg from weaning, nine weeks of age
Experimental: Separate groups of Npc1^−/− and Npc1^+/+ mice were left untreated, as controls. Motor function analysis was performed on mice at eight and nine weeks of age using an Open Field Activity Monitor according to manufacturer's instructions (Linton Instruments, Amlogger Software). Each mouse was placed in a plastic cage with bedding and analysed for five minutes. Rears were counted manually. Motor function parameters measured were: • 1. Centre Rearing: mice rearing on hind legs unsupported; • 2. Rearing: mice rearing on hind legs with and without the support of cage walls; • 3. Activity: regular movement of the animal including walks; • 4. Front to Back (FR) count: movement of the animal from front to back of the cage; • 5. Active Time: duration (s/min) of activeness regardless of movement; • 6. Mobile Time: duration (s/min) of mobility; • 7. Rearing Time: duration of any rearing. Results Coat Condition

[1] = test system: Mucolipidosis Type II (MLII) patient fibroblasts; test: Lysosomal volume via LysoTracker, MLII fibroblasts; format: cell-based, human; settings: 1 mM, 6 days
[2] = test system: Mucopolysaccharidosis Type VII (MPS VII) patient fibroblasts; test: Lysosomal volume via LysoTracker, MPS VII fibroblasts; format: cell-based, human; settings: 1 mM, 6 days
[3] = test system: corticobasal syndrome patient; test: Case study, corticobasal syndrome; format: in vivo, human
Experimental: Gait analysis was performed before treatment commenced.

[4] = test system: NPC Chinese Hamster Ovary (CHO) cells; test: Relative lysosomal volume via LysoTracker, NPC CHO cells; format: cell-based; settings: 1 mM, 72 hours, p<0.01 versus untreated NPC1-null
Description: Relative lysosomal volume was quantified via LysoTracker.

[5] = test system: restless leg syndrome patients; test: Case studies, restless legs syndrome (IRLS score); format: in vivo, human; design: key to IRLS: IRLS 0 (no symptoms) to 40; >30 very severe, ≤10 mild
Description: A widely reported rating scale known as the International Restless Leg Syndrome Study Group Rating Scale (“IRLS”) was developed by the International Restless Legs Syndrome Study Group (“IRLSSG”) (http://www.irlssg.org/) (Walters et al., Validation of the International Restless Legs Syndrome Study Group rating scale for restless legs syndrome. Sleep medicine. 2003 Apr. 1; 4(2):121-32). The IRLS is a 10-item scale with scores ranging from 0 (no symptoms) to 40. Scores >30 are considered very severe, severe (Score 21-30), moderate (scores 11-20) and ≤10, mild. Use of the scale is common for clinical assessment, research and therapeutic trials with RLS. In one embodiment, treatment with leucine, acetyl-leucine, or a pharmaceutically acceptable salt thereof as described herein decreases the subject's International Restless Leg Syndrome Study Group Rating Scale (“IRLS”) compared to a baseline. In one embodiment, the IRLS is reduced compared to baseline by at least 10%, at least 20%, at least 30%, at least 40%, or at least 50%. In one embodiment, the IRLS is reduced by at least 60%, at least 70%, at least 80%, at least 90%, or 100%.
The patient in this case study was a person showing proximal weakness of the so lower limb. […] Upon consultation, they reported no sensory symptoms but complained of a restless leg syndrome at night and during resting periods of the day, occurring over the course of the last two years. Pre-treatment with dopamine agonist were without symptom relief. Serum creatine kinase activity was only mildly elevated at up to 400 IU/L. The patient was evaluated using the RLS diagnostic index (RLS-DI) (see Walters et al., Sleep Med 2003; 4(2):121-132;). The patient's International Restless Legs Syndrome Rating Scale score (IRLS) was 36, and thus a severe RLS was diagnosed. […] Re-introduction of the treatment re-declined the score to 8 after 2 weeks. Continuation of treatment over more than 22 weeks stabilized the IRLS score at 8.
The patient in this case study was a person showing proximal weakness of the lower limb. […] Upon consultation, they reported no sensory symptoms but complained of a restless leg syndrome at night and during resting periods of the day, occurring over the course of the last eight years. […] Serum creatine kinase activity was mildly elevated at 300 IU/L. Iron measurements and all additional lab investigations were normal. The patient was evaluated using the RLS-DI and the patient's IRLS was 32, and thus a moderate to severe RLS was diagnosed. […] Continuation of treatment over more than 28 weeks stabilized the IRLS score at 8.
The patient in this case study was a person showing mild proximal weakness of the upper and lower limbs slowly progressive. The patient had been diagnosed (genetically confirmed) with McArdle myopathy about 16 years ago. Upon consultation, they reported no sensory symptoms but complained about a severe fatigue and reduced stamina. The patient further reported a restless leg syndrome at night and during resting periods of the day, occurring over the course of the last 12 years. […] Serum creatine kinase activity was mildly elevated at 200 IU/L; however, the patient had 5 episodes of rhabdomyolysis during the past 20 years. Repeated iron measurements and all additional lab investigations were normal. The patient was evaluated using the RLS-DI and the patient's IRLS was 34, and thus a severe RLS was diagnosed. […] Continuation of treatment over more than 30 weeks stabilized the IRLS score at 10. In addition, the patient's fatigue declined (Fatigue Severit Scale: 9 (minimum) to 63 (maximum)) from 53 to 28.

[6] = test system: patients with cerebellar ataxia; settings: cited from earlier work

Which “Motor function vs untreated littermates” value (Npc1−/− and Npc1+/+ mice) does the source give for `CC(=O)NC(CC(C)C)C(=O)O` (racemic) [acetyl-DL-leucine] here?
Its value is “significantly improved motor function”.

What about the “LysoTracker fluorescence relative to untreated disease fibroblasts” value [1] of the same compound?
The value was “statistically significant reduction in LysoTracker fluorescence”.

And the “LysoTracker fluorescence relative to untreated disease fibroblasts” value [2]?
The value was “trend in reducing LysoTracker fluorescence”.

And the Clinical observation ([3]; 5 g per day, after 20 days)?
The Clinical observation was “improvement of dizziness symptoms and significant reduction in the frequency of falls”.

And the “Coefficient of variation (temporal)” value ([3]; after 20 days of treatment, before 3.9)?
Its value is 3.4.

What about the Track width ([3]; after 20 days of treatment, before 12.1) of the same compound?
The Track width was 12.3 cm.

What about the “Functional Gait Assessment” value ([3]; after 20 days of treatment, before 13/30) of the same compound?
The value was 18/30.

What about the Double stance ([3]; after 20 days of treatment, before 29.8) of the same compound?
Its Double stance is 26.6%.

And the speed ([3]; after 20 days of treatment, before 63)?
The speed was 92 cm/s.

What about the Step cycle length ([3]; after 20 days of treatment, before 84) of the same compound?
The Step cycle length was 104 cm.

What about the cadence ([3]; after 20 days of treatment, before 90) of the same compound?
Its cadence is 106 steps/minute.

What about the Max. speed ([3]; after 20 days of treatment, before 131) of the same compound?
The Max. speed was 152 cm/s.

What about the “Symptoms after suspension of treatment” value ([3]; two days after suspension, after 8 weeks of treatment) of the same compound?
The value was “increase of dizziness symptoms”.

And the “Lysosomal volume (LysoTracker)” value [4]?
The value was “significantly reduced lysosomal volume”.

What about the IRLS ([5]; RLS Patient 1 (myotonic dystrophy type 2), 5 g per day, within 14 days, before 36) of the same compound?
Its IRLS is 26.

And the IRLS ([5]; RLS Patient 1, 2 weeks after re-introduction of the treatment)?
The IRLS was 8.

What about the IRLS ([5]; RLS Patient 1, after another 5 weeks) of the same compound?
The IRLS was 9.

What about the IRLS ([5]; RLS Patient 1, continuation of treatment over more than 22 weeks) of the same compound?
Its IRLS is 8.

What about the IRLS ([5]; RLS Patient 1, interruption of 4 weeks after week 12 of the treatment) of the same compound?
The IRLS was 28.

What about the IRLS ([5]; RLS Patient 2 (myotonic dystrophy type 2), 5 g per day, within 14 days, before 32) of the same compound?
The IRLS was 22.

What about the IRLS ([5]; RLS Patient 2, after another 5 weeks) of the same compound?
Its IRLS is 7.

And the IRLS ([5]; RLS Patient 2, continuation of treatment over more than 28 weeks)?
Its IRLS is 8.

And the IRLS ([5]; RLS Patient 3 (McArdle myopathy), 5 g per day, within 21 days, before 34)?
The IRLS was 20.

And the IRLS ([5]; RLS Patient 3, after another 10 weeks)?
Its IRLS is 10.

And the IRLS ([5]; RLS Patient 3, continuation of treatment over more than 30 weeks)?
Its IRLS is 10.

What about the “Fatigue Severit Scale” value ([5]; RLS Patient 3, scale 9 (minimum) to 63 (maximum), declined from 53) of the same compound?
The value was 28.

And the “PET study in patients with ataxia” value ([6]; Becker-Bense et al. (2015))?
The value was “increased metabolism in the midbrain and lower brainstem in responders”.

What about the “Cerebellar ataxia, another case series” value ([6]; Pelz et al. (2015)) of the same compound?
The value was “did not find benefit”.

And the Quantitative gait analysis ([6]; Schniepp et al. (2015))?
The Quantitative gait analysis was “improved temporal gait variability”.

What about the “Cerebellar ataxia, case series” value ([6]; Strupp et al. (2013)) of the same compound?
Its value is “symptomatic improvement of cerebellar ataxia”.
